Molecular target: NaV 1.8 channel (Homo sapiens, UniProt Q9Y5Y9)
Experiment: Activity against NaV 1.8 channel (optical membrane potential assay)
Format: cell-based
Protocol: Compounds of the invention are useful as antagonists of voltage-gated sodium ion channels. Antagonist properties of test compounds were assessed as follows. Cells expressing the NaV of interest were placed into microtiter plates. After an incubation period, the cells were stained with fluorescent dyes sensitive to the transmembrane potential. The test compounds were added to the microtiter plate. The cells were stimulated with either a chemical or electrical means to evoke a NaV dependent membrane potential change from unblocked channels, which was detected and measured with trans-membrane potential-sensitive dyes. Antagonists were detected as a decreased membrane potential response to the stimulus. The optical membrane potential assay utilized voltage-sensitive FRET sensors described by Gonzalez and Tsien (See, Gonzalez, J. E. and R. Y. Tsien (1995) “Voltage sensing by fluorescence resonance energy transfer in single cells” Biophys J 69(4): 1272-80, and Gonzalez, J. E. and R. Y. Tsien (1997) “Improved indicators of cell membrane potential that use fluorescence resonance energy transfer” Chem Biol 4(4): 269-77) in combination with instrumentation for measuring fluorescence changes such as the Voltage/Ion Probe Reader (VIPR®) (See, Gonzalez, J. E., K. Oades, et al. (1999) “Cell-based assays and instrumentation for screening ion-channel targets” Drug Discov Today 4(9): 431-439).
24 hours before the assay on VIPR, CHO cells endogenously expressing a NaV1.2 type voltage-gated NaV are seeded in 96-well poly-lysine coated plates at 60,000 cells per well. Other subtypes are performed in an analogous mode in a cell line expressing the NaV of interest. • 1) On the day of the assay, medium is aspirated and cells are washed twice with 225 μL of Bath Solution #2 (BS#2). • 2) A 15 uM CC2-DMPE solution is prepared by mixing 5 mM coumarin stock solution with 10% Pluronic 127 1:1 and then dissolving the mix in the appropriate volume of BS#2. • 3) After bath solution is removed from the 96-well plates, the cells are loaded with 80 μL of the CC2-DMPE solution. Plates are incubated in the dark for 30 minutes at room temperature. • 4) While the cells are being stained with coumarin, a […] solution in BS#2 is prepared. In addition to DiSBAC2(3), this solution should contain 0.75 mM ABSCl and […] (prepared from 10 mM EtOH stock, Sigma #V-5754). • 5) After 30 minutes, CC2-DMPE is removed and the cells are washed twice with 225 μL of BS#2. As before, the residual volume should be 40 μL. • 6) Upon removing the bath, the cells are loaded with 80 μL of the DiSBAC2(3) solution, after which test compound, dissolved in DMSO, is added to achieve the desired test concentration to each well from the drug addition plate and mixed thoroughly. The volume in the well should be roughly 121 μL. The cells are then incubated for 20-30 minutes. • 7) Once the incubation is complete, the cells are ready to be assayed on VIPR® with a sodium add back protocol. 120 μL of Bath solution #1 is added to stimulate the NaV dependent depolarization. […] was used as an antagonist positive control for block of the NaV channel.
Data are analyzed and reported as normalized ratios of background-subtracted emission intensities measured in the 460 nm and 580 nm channels. Background intensities are then subtracted from each assay channel. Background intensities are obtained by measuring the emission intensities during the same time periods from identically treated assay wells in which there are no cells. The response as a function of time is then reported as the ratios obtained using the following formula: […]
The data is further reduced by calculating the initial (Ri) and final (Rf) ratios. These are the average ratio values during part or all of the pre-stimulation period, and during sample points during the stimulation period. The response to the stimulus R=Rf/Ri is then calculated. […]

Chain of NaV 1.8 channel (Q9Y5Y9 whole entry): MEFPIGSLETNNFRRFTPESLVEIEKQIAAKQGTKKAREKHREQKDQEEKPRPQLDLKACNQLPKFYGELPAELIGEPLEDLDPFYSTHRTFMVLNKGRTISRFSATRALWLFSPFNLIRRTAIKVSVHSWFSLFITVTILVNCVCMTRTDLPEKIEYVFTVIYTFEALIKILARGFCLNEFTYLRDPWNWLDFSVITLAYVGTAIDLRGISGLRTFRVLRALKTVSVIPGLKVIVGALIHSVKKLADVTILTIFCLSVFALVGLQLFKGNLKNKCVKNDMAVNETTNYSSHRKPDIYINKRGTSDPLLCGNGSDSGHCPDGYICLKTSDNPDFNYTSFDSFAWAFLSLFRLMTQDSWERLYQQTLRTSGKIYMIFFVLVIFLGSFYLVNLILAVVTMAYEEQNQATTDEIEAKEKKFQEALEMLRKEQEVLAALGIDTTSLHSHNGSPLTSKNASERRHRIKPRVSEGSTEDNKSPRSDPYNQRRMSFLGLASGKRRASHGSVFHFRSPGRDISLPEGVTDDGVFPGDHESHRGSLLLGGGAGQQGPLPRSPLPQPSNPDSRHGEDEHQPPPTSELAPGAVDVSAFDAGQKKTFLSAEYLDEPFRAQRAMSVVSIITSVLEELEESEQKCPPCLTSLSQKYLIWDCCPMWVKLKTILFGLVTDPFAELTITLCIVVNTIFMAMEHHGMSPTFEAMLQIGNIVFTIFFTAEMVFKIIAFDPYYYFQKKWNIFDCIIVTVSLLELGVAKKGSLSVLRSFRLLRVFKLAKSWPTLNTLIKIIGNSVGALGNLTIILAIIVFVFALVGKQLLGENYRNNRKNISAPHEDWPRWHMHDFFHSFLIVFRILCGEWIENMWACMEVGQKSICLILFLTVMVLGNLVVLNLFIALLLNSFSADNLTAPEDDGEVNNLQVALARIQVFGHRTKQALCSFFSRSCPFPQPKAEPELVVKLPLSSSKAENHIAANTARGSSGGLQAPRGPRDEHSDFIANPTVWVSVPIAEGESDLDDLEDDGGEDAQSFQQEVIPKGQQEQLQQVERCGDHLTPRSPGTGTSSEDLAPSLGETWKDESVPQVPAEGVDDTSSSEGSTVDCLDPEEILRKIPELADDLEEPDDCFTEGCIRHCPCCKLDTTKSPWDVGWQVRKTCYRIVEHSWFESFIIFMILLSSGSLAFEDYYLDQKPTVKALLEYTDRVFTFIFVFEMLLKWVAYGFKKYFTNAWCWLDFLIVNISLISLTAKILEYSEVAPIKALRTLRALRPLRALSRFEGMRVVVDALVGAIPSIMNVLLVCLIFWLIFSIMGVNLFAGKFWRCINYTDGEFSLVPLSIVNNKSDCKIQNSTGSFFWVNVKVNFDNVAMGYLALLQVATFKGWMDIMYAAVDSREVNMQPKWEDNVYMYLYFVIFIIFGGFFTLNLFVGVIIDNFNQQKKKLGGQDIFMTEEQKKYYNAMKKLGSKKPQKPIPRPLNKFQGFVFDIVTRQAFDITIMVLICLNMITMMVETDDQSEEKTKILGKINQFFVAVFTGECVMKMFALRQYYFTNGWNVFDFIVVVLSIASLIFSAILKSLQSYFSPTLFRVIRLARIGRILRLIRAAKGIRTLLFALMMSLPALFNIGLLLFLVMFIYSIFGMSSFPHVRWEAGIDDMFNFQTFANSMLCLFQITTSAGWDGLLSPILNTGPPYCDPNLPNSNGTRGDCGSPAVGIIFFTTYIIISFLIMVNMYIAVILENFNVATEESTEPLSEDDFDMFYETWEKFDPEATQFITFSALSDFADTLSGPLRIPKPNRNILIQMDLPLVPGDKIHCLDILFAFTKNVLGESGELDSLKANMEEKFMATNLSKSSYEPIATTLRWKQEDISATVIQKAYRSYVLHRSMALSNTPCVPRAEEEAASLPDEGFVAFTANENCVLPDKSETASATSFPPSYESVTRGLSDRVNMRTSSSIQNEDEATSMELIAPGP

Structure (SMILES)	IC50 [µM]
COCCOC(=O)NC[C@@H]1CCCN(c2nc(-c3ccccc3O)nc3cc(C)ccc23)C1 [Example 257, 2-Methoxyethyl ((S)-1-(2-(2-hydroxyphenyl)-7-methylquinazolin-4-yl)piperidin-3-yl)methylcarbamate]	2 to 10
Cc1ccc2c(N3CC[C@@H](CNC(=O)O[C@H]4CCOC4)C3)nc(-c3ccccc3O)nc2c1 [Example 305, (S)-Tetrahydrofuran-3-yl ((S)-1-(2-(2-hydroxyphenyl)-7-methylquinazolin-4-yl)pyrrolidin-3-yl)methylcarbamate]	2 to 10
O=C(N[C@@H]1CCN(c2nc(-c3ccccc3O)nc3ccc(F)cc23)C1)c1cccnc1 [Example 349, N—((R)-1-(6-Fluoro-2-(2-hydroxyphenyl)quinazolin-4-yl)pyrrolidin-3-yl)nicotinamide]	> 10
CC[C@@H](O)C(=O)N1CCN(c2nc(-c3ccccc3O)nc3ccccc23)CC1 [Example 118, (R)-2-Hydroxy-1-(4-(2-(2-hydroxyphenyl)quinazolin-4-yl)piperazin-1-yl)butan-1-one]	2 to 10
Cc1ccc2c(N3CCC[C@@H](CNC(=O)O[C@@H]4CCOC4)C3)nc(-c3ccccc3O)nc2c1 [Example 214, (R)-Tetrahydrofuran-3-yl ((S)-1-(2-(2-hydroxyphenyl)-7-methylquinazolin-4-yl)piperidin-3-yl)methylcarbamate]	> 10
CCCCC(O)C(=O)NC1CCN(c2nc(-c3ccccc3O)nc3cc(C)ccc23)CC1 (stereo not drawn) [Example 245, 2-Hydroxy-N-(1-(2-(2-hydroxyphenyl)-7-methylquinazolin-4-yl)piperidin-4-yl)hexanamide]	> 10
Cc1ccc2c(N3CCN(C(=O)C(C)(C)C)CC3)nc(-c3ccccc3O)nc2c1 [Example 196]	< 2
Cc1ccc2c(N3CCN(C(=O)[C@H](O)CC(C)C)CC3CO)nc(-c3ccccc3O)nc2c1 (stereo partly drawn) [Example 172, (R)-2-Hydroxy-1-{3-hydroxymethyl-4-[2-(2-hydroxy-phenyl)-7-methyl-quinazolin-4-yl]-piperazin-1-yl}-4-methyl-pentan-1-one]	> 10
CCC(C)(O)C(=O)NC1CCN(c2nc(-c3ccccc3O)nc3cc(C)ccc23)CC1 (stereo not drawn) [Example 248, 2-Hydroxy-N-(1-(2-(2-hydroxyphenyl)-7-methylquinazolin-4-yl)piperidin-4-yl)-2-methylbutanamide]	2 to 10
CCC(O)(CC)C(=O)NC1CCN(c2nc(-c3ccccc3O)nc3ccccc23)CC1 [Example 240, 2-Ethyl-2-hydroxy-N-(1-(2-(2-hydroxyphenyl)quinazolin-4-yl)piperidin-4-yl)butanamide]	> 10
Cc1ccc2c(N3CCC(NC(=O)C(C)(O)C(F)(F)F)CC3)nc(-c3ccccc3O)nc2c1 (stereo not drawn) [Example 246, 2-(Trifluoromethyl)-2-hydroxy-N-(1-(2-(2-hydroxyphenyl)-7-methylquinazolin-4-yl)piperidin-4-yl)propanamide]	> 10
CC[C@H](O)C(=O)NC1CCN(c2nc(-c3ccccc3O)nc3ccccc23)CC1 [Example 237, (2S)-2-Hydroxy-N-(1-(2-(2-hydroxyphenyl)quinazolin-4-yl)piperidin-4-yl)butanamide]	> 10
Cc1ccc2c(N3CCC[C@@H](CNC(=O)O[C@H]4CCOC4)C3)nc(-c3ccccc3O)nc2c1 [Example 215, (S)-Tetrahydrofuran-3-yl ((S)-1-(2-(2-hydroxyphenyl)-7-methylquinazolin-4-yl)piperidin-3-yl)methylcarbamate]	> 10
Cc1ccc2c(N3CCCC(CNC(=O)O[C@@H]4CCOC4)C3)nc(-c3ccccc3O)nc2c1 (stereo partly drawn) [Example 210, (R)-Tetrahydrofuran-3-yl (1-(2-(2-hydroxyphenyl)-7-methylquinazolin-4-yl)piperidin-3-yl)methylcarbamate]	2 to 10
Cc1ccc2c(N3CC(CNC(=O)C4CCCO4)C3)nc(-c3ccccc3O)nc2c1 (stereo not drawn) [Example 417]	> 10
O=C(OCc1cccc2c1OCO2)N1CCN(c2nc(-c3ccccc3O)nc3ccccc23)CC1 [Example 140, (Benzo[d][1,3]dioxol-7-yl)methyl 4-(2-(2-hydroxyphenyl)quinazolin-4-yl)piperazine-1-carboxylate]	> 10
Cc1ccc2c(N3CC[C@@H](CNC(=O)[C@H]4CCCO4)C3)nc(-c3ccccc3O)nc2c1 [Example 310, (2R)-Tetrahydro-N—(((S)-1-(2-(2-hydroxyphenyl)-7-methylquinazolin-4-yl)pyrrolidin-3-yl)methyl)furan-2-carboxamide]	2 to 10
CCC(C)(O)CC(=O)N1CCN(c2nc(-c3ccccc3O)nc3cc(C)ccc23)CC1 (stereo not drawn) [Example 181]	> 10
O=C(NC[C@@H]1CCN(c2nc(-c3ccccc3O)nc3ccc(F)cc23)C1)C1CC1 [Example 357, N—(((S)-1-(6-Fluoro-2-(2-hydroxyphenyl)quinazolin-4-yl)pyrrolidin-3-yl)methyl)cyclopropanecarboxamide]	> 10
O=C(N[C@@H]1CCN(c2nc(-c3ccccc3O)nc3ccc(F)cc23)C1)c1ccccn1 [Example 348, N—((R)-1-(6-Fluoro-2-(2-hydroxyphenyl)quinazolin-4-yl)pyrrolidin-3-yl)picolinamide]	> 10
Cc1ccc2c(N3CCN(C(=O)OCC(C)C)CC3)nc(-c3c(C)cccc3O)nc2c1 [Example 193]	< 2

More lines, now with the values ahead:

IC50 [µM]	Structure (SMILES)
> 10	Cc1ccc2c(N3CC[C@@H](NC(=O)C(O)c4ccc(F)cc4)C3)nc(-c3ccccc3O)nc2c1 (stereo partly drawn) [Example 360, 2-(4-Fluorophenyl)-2-hydroxy-N—((R)-1-(2-(2-hydroxyphenyl)-7-methylquinazolin-4-yl)pyrrolidin-3-yl)acetamide]
> 10	Cc1ccc2c(N3CCN(C(=O)[C@H](O)Cc4ccccc4)CC3)nc(-c3ccccc3O)nc2c1 [Example 130, (R)-2-Hydroxy-1-{4-[2-(2-hydroxy-phenyl)-7-methyl-quinazolin-4-yl]-piperazin-1-yl}-3-phenylpropan-1-one]
> 10	Cc1ccc2c(N3CC(C(=O)NCc4cccnc4)C3)nc(-c3ccccc3O)nc2c1 [Example 402, 1-(2-(2-Hydroxyphenyl)-7-methylquinazolin-4-yl)-N-((pyridin-3-yl)methyl)azetidine-3-carboxamide]
> 10	Cc1ccc2c(N3CC[C@@H](NC(=O)c4cccc(N(C)C)c4)C3)nc(-c3ccccc3O)nc2c1 [Example 342, 3-(Dimethylamino)-N—((R)-1-(2-(2-hydroxyphenyl)-7-methylquinazolin-4-yl)pyrrolidin-3-yl)benzamide]
> 10	CC(C)C[C@@H](O)C(=O)N1CCN(c2nc(-c3c(O)cccc3Cl)nc3ccccc23)CC1 [Example 146, (R)-1-(4-(2-(2-Chloro-6-hydroxyphenyl)quinazolin-4-yl)piperazin-1-yl)-2-hydroxy-4-methylpentan-1-one]
< 2	Cc1ccc2c(N3CC[C@@H](CNC(=O)OCC(C)(C)C)C3)nc(-c3ccccc3O)nc2c1 [Example 369, Neopentyl ((S)-1-(2-(2-hydroxyphenyl)-7-methylquinazolin-4-yl)pyrrolidin-3-yl)methylcarbamate]
> 10	CC(C)COC(=O)NC[C@@H]1CCN(c2nc(-c3ccccc3O)nc3ccc(F)cc23)C1 [Example 376, Isobutyl ((S)-1-(6-fluoro-2-(2-hydroxyphenyl)quinazolin-4-yl)pyrrolidin-3-yl)methylcarbamate]
> 10	Cc1ccc2c(N3CCC(NC(=O)CCc4cccnc4)CC3)nc(-c3ccccc3O)nc2c1 [Example 225, N-{1-[2-(2-Hydroxy-phenyl)-7-methyl-quinazolin-4-yl]-piperidin-4-yl}-3-pyridin-3-yl-propionamide]
> 10	Cc1ccc2c(N3CC[C@@H](NC(=O)c4cccnc4)C3)nc(-c3c(O)cccc3F)nc2c1 [Example 352, N—((R)-1-(2-(2-Fluoro-6-hydroxyphenyl)-7-methylquinazolin-4-yl)pyrrolidin-3-yl)nicotinamide]

From patent US7928107B2, “Quinazolines useful as modulators of ion channels” (Vertex Pharmaceuticals Incorporated, priority 2004, dated 2011)
